Laboratory results from PMC5835287, “Synthesis, Characterization, and BSA-Binding Studies of Novel Sulfonated Zinc-Triazine Complexes” (Bioinorganic Chemistry and Applications, 2018).
Structures can show the parent of a compound that is named as a salt.

Biological target: T1, bovine serum albumin (BSA) (Bos taurus, UniProt P02769)
T1 construct: gene ALB
Assay: UV absorbance titration at […] nm (binding constant Kb from […]/(A-A0) vs […]/[C] plot)
Details: read-out: UV absorbance titration at 280 nm (binding constant Kb from 1/(A-A0) vs 1/[C] pl) (converted)

T1 sequence (P02769 25-607): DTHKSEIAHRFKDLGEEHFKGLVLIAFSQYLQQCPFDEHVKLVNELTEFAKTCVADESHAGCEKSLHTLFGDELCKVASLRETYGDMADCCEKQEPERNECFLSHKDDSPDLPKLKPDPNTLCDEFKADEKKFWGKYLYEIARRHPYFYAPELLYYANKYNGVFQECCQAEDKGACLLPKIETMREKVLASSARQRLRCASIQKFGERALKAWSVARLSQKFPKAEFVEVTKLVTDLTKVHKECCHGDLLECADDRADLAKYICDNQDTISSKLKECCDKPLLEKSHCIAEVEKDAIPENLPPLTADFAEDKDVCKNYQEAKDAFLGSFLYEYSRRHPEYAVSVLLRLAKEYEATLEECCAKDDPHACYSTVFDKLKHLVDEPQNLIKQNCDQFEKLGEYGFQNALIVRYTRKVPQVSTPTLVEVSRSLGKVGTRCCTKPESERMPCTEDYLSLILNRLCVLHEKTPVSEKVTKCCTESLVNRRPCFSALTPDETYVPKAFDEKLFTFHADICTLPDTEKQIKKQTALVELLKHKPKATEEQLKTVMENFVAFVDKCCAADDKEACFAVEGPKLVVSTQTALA

Kd: 32.4 µM
Structure (SMILES): O=S(=O)(O)c1ccc(-c2nnc(-c3ccccn3)nc2-c2ccc(S(=O)(=O)O)o2)o1 [L1, 3-(2-pyridyl)-5,6-di(2-furyl)-1,2,4-triazine-5′,5″-disulfonic acid disodium salt]
